Consider 18 compounds from patent US20090170813A1, “Hypophosphorous Acid Derivatives and their Therapeutical Applications” (priority 2005, published 2009).

Where two headings read alike, the source gives them in different places. Where only a bound is given, the exact number is not on record here.

Assay [1] concerns the target T1, rat mGlu4 (Rattus norvegicus, UniProt P31423).
T1 construct: expressed in transfected cells; host or cells: HEK293
The assay can be described thus: Agonist activity, [3H]phosphatidylinositol accumulation in HEK293 cells transfected with rat mGlu4 and Gqi9. In kind it is cell-based. How it is done: Agonist activity of the compounds was tested on HEK293 cells transiently transfected with rat mGlu4 expressing plasmid pRKG4 and chimeric G-protein Gqi9 by electroporation, as described by Gomeza, J. et al, Mol. Pharmacol; 1996, 50, 923-930.
Cells were plated in 96-well culture plates and labeled overnight with [^3H]myoinositol. The day after, cells were washed three times with Krebs buffer, incubated for 10 min with LiCl 5 mM, and then incubated for 30 min in the absence (basal) or in the presence of the indicated compounds at 1 nM up to 1000 μM. The total amount of [^3H]phosphatidylinositol accumulated in the cells was determined after Dowex purification as previously by Goudet C, et al, Prod. Natl. Acad. Sci. USA 2004, 101, 378-383.
The response dosis curves were adjusted by using equatrier y=[(Ymax−ymin)/(1+(x/EC50)^n)]+ymin where EC50 is the concentration necessary for obtaining half of the maximal effect and n is Hill coefficient.

Assay [2] deals with mGlu7 (Homo sapiens, UniProt Q14831). The assay can be described thus: Agonist activity on group III receptor mGlu7.
Assay [3] addresses mGlu8 (Homo sapiens, UniProt O00222). Put plainly: Agonist activity on group III receptor mGlu8.
In assay [4] the target is T2, mGlu4R (Homo sapiens, UniProt Q14833). The following applies: background statement; read-out: EC50 as mGlu4R agonist; cited from earlier work.
Assay [5] addresses T2, mGlu4R. The following applies: background statement; read-out: IC50 as competitive antagonist; cited from earlier work.
The mark [6] stands for this setting: Table 1, mean ± spread (n), read-out: EC50 mGlu4.
[7] abbreviates: Table 2, n in brackets, read-out: mGlu4 EC50 μM (n).

T1 sequence (P31423 33-912): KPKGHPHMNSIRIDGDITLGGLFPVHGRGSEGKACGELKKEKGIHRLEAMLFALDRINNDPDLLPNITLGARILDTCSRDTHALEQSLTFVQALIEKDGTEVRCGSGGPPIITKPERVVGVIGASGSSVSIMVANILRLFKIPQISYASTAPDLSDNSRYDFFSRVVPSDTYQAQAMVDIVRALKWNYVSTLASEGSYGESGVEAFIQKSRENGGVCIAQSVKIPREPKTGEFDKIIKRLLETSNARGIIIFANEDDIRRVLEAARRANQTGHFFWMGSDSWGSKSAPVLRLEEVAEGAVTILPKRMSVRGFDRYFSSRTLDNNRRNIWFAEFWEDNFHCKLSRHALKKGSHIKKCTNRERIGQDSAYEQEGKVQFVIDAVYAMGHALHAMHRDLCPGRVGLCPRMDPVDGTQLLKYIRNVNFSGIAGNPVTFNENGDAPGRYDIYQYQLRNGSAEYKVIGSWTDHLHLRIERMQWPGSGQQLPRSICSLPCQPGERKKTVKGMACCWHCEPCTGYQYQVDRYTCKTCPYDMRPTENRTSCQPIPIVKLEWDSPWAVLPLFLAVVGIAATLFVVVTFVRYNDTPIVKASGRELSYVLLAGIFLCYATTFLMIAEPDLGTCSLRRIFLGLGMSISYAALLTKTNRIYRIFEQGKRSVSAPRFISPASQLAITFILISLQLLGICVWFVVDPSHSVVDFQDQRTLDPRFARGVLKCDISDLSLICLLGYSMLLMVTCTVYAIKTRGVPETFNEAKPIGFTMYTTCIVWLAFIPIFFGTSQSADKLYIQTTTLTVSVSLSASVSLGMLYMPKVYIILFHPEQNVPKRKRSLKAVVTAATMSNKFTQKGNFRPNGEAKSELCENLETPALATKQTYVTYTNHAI
Chain of mGlu8 (O00222 34-908): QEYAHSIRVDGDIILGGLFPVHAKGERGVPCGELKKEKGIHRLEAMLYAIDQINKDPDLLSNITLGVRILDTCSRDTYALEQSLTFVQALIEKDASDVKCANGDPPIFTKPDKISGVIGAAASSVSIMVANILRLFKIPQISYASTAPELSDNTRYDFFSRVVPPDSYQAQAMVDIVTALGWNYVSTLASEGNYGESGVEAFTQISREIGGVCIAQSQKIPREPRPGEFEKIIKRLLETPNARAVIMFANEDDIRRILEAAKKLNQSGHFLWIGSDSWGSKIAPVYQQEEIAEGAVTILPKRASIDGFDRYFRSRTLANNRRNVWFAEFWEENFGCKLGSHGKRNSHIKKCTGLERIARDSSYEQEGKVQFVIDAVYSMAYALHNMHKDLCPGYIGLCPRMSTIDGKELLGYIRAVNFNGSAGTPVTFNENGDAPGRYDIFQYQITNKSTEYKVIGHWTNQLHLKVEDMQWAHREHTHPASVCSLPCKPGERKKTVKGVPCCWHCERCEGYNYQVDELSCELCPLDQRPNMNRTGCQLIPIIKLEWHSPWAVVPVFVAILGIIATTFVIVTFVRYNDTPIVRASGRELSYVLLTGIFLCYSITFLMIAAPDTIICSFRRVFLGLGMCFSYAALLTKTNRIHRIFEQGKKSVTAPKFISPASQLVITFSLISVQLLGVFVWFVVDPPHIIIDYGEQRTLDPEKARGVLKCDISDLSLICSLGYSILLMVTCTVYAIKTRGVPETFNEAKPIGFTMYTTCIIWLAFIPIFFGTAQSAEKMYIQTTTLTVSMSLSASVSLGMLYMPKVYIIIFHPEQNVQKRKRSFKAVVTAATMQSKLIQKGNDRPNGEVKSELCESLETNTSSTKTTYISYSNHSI
Chain of mGlu7 (Q14831 35-915): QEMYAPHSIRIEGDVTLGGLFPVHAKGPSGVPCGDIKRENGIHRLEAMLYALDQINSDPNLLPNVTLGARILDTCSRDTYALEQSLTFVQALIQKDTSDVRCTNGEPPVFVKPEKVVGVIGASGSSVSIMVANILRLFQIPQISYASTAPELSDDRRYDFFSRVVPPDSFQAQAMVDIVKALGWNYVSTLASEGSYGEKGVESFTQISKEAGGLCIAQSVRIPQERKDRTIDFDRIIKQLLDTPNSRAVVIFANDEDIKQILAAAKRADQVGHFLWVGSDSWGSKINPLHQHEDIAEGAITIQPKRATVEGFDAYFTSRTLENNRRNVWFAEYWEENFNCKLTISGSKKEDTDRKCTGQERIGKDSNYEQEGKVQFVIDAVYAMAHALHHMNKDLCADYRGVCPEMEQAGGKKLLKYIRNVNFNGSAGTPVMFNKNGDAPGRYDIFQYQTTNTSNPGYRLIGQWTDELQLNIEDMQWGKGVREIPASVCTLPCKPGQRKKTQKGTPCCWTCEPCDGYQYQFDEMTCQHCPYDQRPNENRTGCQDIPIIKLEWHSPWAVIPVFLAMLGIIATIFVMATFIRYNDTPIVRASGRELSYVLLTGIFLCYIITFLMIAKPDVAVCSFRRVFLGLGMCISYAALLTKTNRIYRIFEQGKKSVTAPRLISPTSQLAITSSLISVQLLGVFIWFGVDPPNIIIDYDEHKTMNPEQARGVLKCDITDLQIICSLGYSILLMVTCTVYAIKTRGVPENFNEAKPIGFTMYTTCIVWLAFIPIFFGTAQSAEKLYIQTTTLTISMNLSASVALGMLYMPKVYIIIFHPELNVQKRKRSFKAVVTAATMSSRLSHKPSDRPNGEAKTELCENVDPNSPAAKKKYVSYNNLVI
T2 sequence (Q14833 33-912): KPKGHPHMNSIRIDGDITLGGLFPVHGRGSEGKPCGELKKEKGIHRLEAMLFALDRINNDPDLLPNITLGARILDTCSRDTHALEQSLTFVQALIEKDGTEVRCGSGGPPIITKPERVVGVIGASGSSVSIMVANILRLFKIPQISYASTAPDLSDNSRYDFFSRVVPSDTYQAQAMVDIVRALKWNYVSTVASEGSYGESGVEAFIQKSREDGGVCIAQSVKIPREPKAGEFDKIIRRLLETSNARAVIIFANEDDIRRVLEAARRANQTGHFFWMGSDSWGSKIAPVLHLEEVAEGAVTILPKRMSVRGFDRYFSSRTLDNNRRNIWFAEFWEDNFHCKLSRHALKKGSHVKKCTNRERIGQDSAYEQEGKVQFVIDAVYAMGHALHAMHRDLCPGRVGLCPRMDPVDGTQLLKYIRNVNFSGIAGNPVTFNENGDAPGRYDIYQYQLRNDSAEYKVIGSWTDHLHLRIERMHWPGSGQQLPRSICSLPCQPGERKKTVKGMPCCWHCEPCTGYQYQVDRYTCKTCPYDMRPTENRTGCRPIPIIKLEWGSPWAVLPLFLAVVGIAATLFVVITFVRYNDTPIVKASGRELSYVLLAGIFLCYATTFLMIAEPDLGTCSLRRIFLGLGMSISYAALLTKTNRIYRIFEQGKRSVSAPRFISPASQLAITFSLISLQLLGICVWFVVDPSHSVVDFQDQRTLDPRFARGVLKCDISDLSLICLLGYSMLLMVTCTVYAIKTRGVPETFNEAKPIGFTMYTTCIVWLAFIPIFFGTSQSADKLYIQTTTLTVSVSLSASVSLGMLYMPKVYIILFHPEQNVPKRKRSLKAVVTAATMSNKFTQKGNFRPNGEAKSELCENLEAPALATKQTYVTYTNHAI

In the case of `NC(CCP(=O)(O)CCC(=O)O)C(=O)O` (racemic) [Compound 4, 3-[((3-Amino-3-carboxy)propyl)(hydroxy)phosphinyl]propanoic Acid], the EC50 in assay [1] (setting [6]) is 6.6 ± 2.8 µM; in assay [1] (setting [7]) it was 7.1 µM; in assay [2], greater than 1000 µM; in assay [3], 24.2 ± 9 µM.

Take `N[C@H](CCP(=O)(O)CCC(=O)O)C(=O)O` [(3R)-PCEP, 3-amino-carboxy-propyl-2′-carboxy-ethylphosphinic acid, reference compound]: the EC50 in assay [1] (setting [6]) is 24.2 ± 7.6 µM; in assay [2] (read-out: EC50 mGlu7, Table 1), greater than 1000 µM; in assay [3] (read-out: EC50 mGlu8, Table 1, mean ± spread (n)), 58.2 ± 8.8 µM.

For the compound `NC(CCP(=O)(O)O)C(=O)O` [L-AP4], in assay [4], the EC50 is 0.32 µM. For the compound `Cc1ccc(C(O)P(=O)(O)CC[C@H](N)C(=O)O)cc1[N+](=O)[O-]` (some centres unmarked) [Compound 52], the half-maximal effective concentration (EC50) in assay [1] (setting [7]) was found to be 1.69 µM. For `N[C@@H](CCP(=O)(O)C(O)c1ccc(F)c([N+](=O)[O-])c1)C(=O)O` (some centres unmarked) [Compound 50], the EC50 in assay [1] (setting [7]) was found to be 1.02 µM. In the case of `N[C@@H](CCP(=O)(O)C(O)c1ccc(C(=O)O)cc1)C(=O)O` (stereo partly drawn) [Compound 40, (3S)-4-[(((3-amino-3-carboxy)propyl)(hydroxy)phosphinyl)-hydroxymethyl]benzoic Acid], the 50% effective concentration (EC50) in assay [1] (setting [7]) was found to be 31.8 µM. For `N[C@@H](CCP(=O)(O)C(O)c1ccccc1C(=O)O)C(=O)O` (stereo partly drawn) [Compound 22, (3S)-2-[(((3-amino-3-carboxy)propyl)(hydroxy)phosphinyl)-hydroxymethyl]benzoic Acid], the “mGlu4 activity at 100 μM” value in assay [1] was “inactive at 100 μM”.

Turning to `NC(CCP(=O)(O)C(CC(=O)O)C(=O)O)C(=O)O` (centres unmarked) [Compound 11], the EC50 in assay [1] (setting [7]) was 59 µM. In the case of `N[C@@H](CCP(=O)(O)CCP(=O)(O)O)C(=O)O` [Compound 42, (3S)-3-[((3-Amino-3-carboxy)propyl)(hydroxy)phosphinyl]ethylphosphonate], the “mGlu4 % max at 100 μM” value in assay [1] is 40% max at 100 μM (1). For `N[C@@H](CCP(=O)(O)C(O)c1cc([N+](=O)[O-])cc([N+](=O)[O-])c1)C(=O)O` (stereo partly drawn) [Compound 97, (3S)-3-[(((3-amino-3-carboxy)propyl)(hydroxy)phosphinyl)-hydroxymethyl] 1,5-dinitrobenzene], the half-maximal effective concentration (EC50) in assay [1] (setting [7]) is 0.81 µM. On the same count and under the same terms, then `N[C@@H](CCP(=O)(O)C(O)c1ccc(C(F)(F)F)o1)C(=O)O` (stereo partly drawn) [Compound 88, (3S)-2-[(((3-amino-3-carboxy)propyl)(hydroxy)phosphinyl)-hydroxymethyl] 5-trifluoromethylfuran], with 1.98 µM; and `N[C@@H](CCP(=O)(O)C(O)c1ccc([N+](=O)[O-])cc1[N+](=O)[O-])C(=O)O` (stereo partly drawn) [Compound 70, (3S)-4-[(((3-amino-3-carboy)propyl)(hydroxy)phosphinyl)-hydroxymethyl]-1,3-dinitrobenzene], with 1 µM; and `N[C@@H](CCP(=O)(O)C(O)c1cc([N+](=O)[O-])ccc1O)C(=O)O` (stereo partly drawn) [Compound 82, (3S)-3-[(((3-amino-3-carboxy)propyl)(hydroxy)phosphinyl)-hydroxymethyl] 4-hydroxy-nitrobenzene], with 1.17 µM. The same measure, in the same setting: as for `N[C@@H](CCP(=O)(O)CC(=O)O)C(=O)O` [Compound 26, (3S)-2-[((3-amino-3-carboxy)propyl)(hydroxy)phosphinyl]ethanoic Acid], the figure is 3.8 µM. As to `NC(CP(=O)(O)CCC(=O)O)C(=O)O` (centres unmarked) [Compound 14], in assay [1], the “mGlu4 activity at 100 μM” value is “inactive at 100 μM (1) . . ”.

For the compound `CC(N)(CCP(=O)(O)O)C(=O)O` (stereo not drawn) [α-methyl analogue], the IC50 in assay [5] is 100 µM. In the case of `N[C@@H](CCP(=O)(O)C(O)c1ccc(C(F)(F)F)cc1)C(=O)O` (some centres unmarked) [Compound 54], the EC50 in assay [1] (setting [7]) came out at 22.2 µM. Consider `N[C@@H](CCP(=O)(O)C(CC(=O)O)CP(=O)(O)O)C(=O)O` (some centres unmarked) [Compound 44], for which the “mGlu4 % max at 100 μM” value in assay [1] is 33% max at 100 μM (1).
